{"source": "patent US11993640B2", "about": "“Treating inflammatory lung disease” (United States Government as represented by the Department …, priority 2019, dated 2024)", "key": {"HCC1806 cells": {"system": "HCC1806 cells", "test": "In vitro cell viability, breast cancer HCC1806", "type": "cell-based, human", "conditions": "5 μM, 72 h", "experimental": "The inhibitory effects of the various synthesized GHRH antagonists were tested in cell proliferation assays in various human cancer cell lines including stomach cancer (KATOIII, N87), colon cancer (HT-29), urothelial cancer (J82, RT4), pancreatic cancer (PANC-1, CFPAC-1), prostatic cancer (PC3), breast cancer (MX-1, HCC1806), ovarian cancer (SK-OV-3, OVCAR-3) and lung cancer (HCC827, H460).\nCell culture. Human cancer cell lines including pancreatic (PANC-1 and CFPAC-1), lung (HCC827 and H460), stomach (NCI-N87 and KATOIII), urothelial (J82, RT4), prostatic (PC3), breast (MX-1 and HCC 1806), colorectal (HT-29), and ovarian (SK-OV-3 and OVCAR-3) were obtained from the American Type Culture Collection (ATCC) and cultured at 37° C. in a humidified 95% air/5% CO2 atmosphere in the medium recommended by ATCC.\nIn vitro cell viability. Cell viability was analyzed as follows: cancer cells including pancreatic (PANC-1 and CFPAC-1), lung (HCC827 and H460), stomach (NCI-N87 and KATOIII), urothelial (J82, RT4), prostatic (PC3) and breast (MX-1 and HCC 1806), colorectal (HT-29) and ovarian (SK-OV-3 and OVCAR-3) were grown on 96 well plates to ˜60% confluence, the cells were starved for 24 h in culture medium containing 0.5% FBS. Cells were then treated with GHRH antagonists MIA602 AVR compounds at concentrations of 1, 2.5 or 5 μM, or vehicle (0.1% DMSO) in quintuplicates for 72 hours. The medium was replaced every 48 hours. Cell viability was measured using CellTiter 96 aqueous one solution kit (Promega). Inhibitory effects of tested AVR compounds in comparison to that of MIA602 are presented as inhibitory potency.\nInhibitory effects of selected AVR compounds in comparison to that of MIA602 are presented as inhibitory potency (e.g., percentage of inhibition). […] The cell lines tested including lung cancer HCC827 (FIG. 2A), pancreatic cancer CFPAC-1 (FIG. 2B), stomach cancer N87 (FIG. 2C), colon cancer HT-29 (FIG. 2D), breast cancers MX-1 and HCC1806 (FIGS. 2E, F). Based on the results of cell proliferation assay after cancer cells were treated with antagonist at concentration of 5 μM for 72H, the relative inhibitory potency of AVR antagonists in comparison to MIA-602 is summarized in Table 3 A and B. Over 60 AVR compounds were tested in 12 cancer cell lines.\nBased on the results of cell proliferation assay after cancer cells were treated with antagonist at concentration of 5 µM for 72H, * at concentration of 2 µM for 72 H."}, "[1]": {"system": "C57Bl/6J mice treated with bleomycin", "test": "Bleomycin lung injury model, micro-CT of lungs", "type": "in vivo, mouse", "conditions": "bleomycin plus MIA-602", "experimental": "Experimental animals. 8-week old C57Bl/6J male mice (The Jackson Laboratory, Bar Harbor, ME) were used in these experiments. Mice weighed about 26 grams at the start. Mice were randomly allocated to the experimental groups and housed in identical filter top cages in a ventilated rack. Mice were exposed to a 12-hour light/dark cycle and had free access to standard laboratory chow and water.\nBleomycin and GHRH-R antagonist treatment. Mice were treated with 0.8 units of bleomycin (Bleomycin for Injection USP, Hospira, Lake Forest, IL) intraperitoneally (IP) on days 1, 3, 7, 10, 14 and 21 (Collins S, Chan-Li Y, Oh M, Vigeland C, Limjunyawong N, Mitzner W, Powell J D, Horton M R (2016). JCI Insight 1(4):1-13). Mice (randomly assigned) were simultaneously treated subcutaneously (sc) with MIA-602 (5 μg/day) or its vehicle (100 μL/day). MIA-602 was dissolved in DMSO (ACS grade; Sigma-Aldrich) and diluted 1:500 in normal saline for daily sc injection on days 0-21.\nTissue preparations. Mice were killed by CO2 inhalation before any treatment, or on days 14 or 28 for micro-CT scans of lungs and harvesting of lung tissue (Vande Velde G, Poelmans J, De Langhe E, Hillen A, Vanoirbeek J, Himmelreich U, Lories R (2016). Dis Model Mech 9:91). […]\nMicro-CT. Mice in each group were assessed by micro-CT scans (Bruker SkyScan 1176 Low Dose Micro-CT, Knotich, Belgium) of the lungs after CO2 inhalation. […]"}, "[2]": {"system": "PAK1-STAT3/NF-κB in gastric cancer cells", "conditions": "Gan et al. 2016; cited from earlier work"}}, "note": "Entries after “also recorded” stand apart in the source; their conditions may differ. Non-standard residues stand in square brackets, D forms with d. Residues, ends and D or L forms follow the SMILES beside them. *: point of attachment. Phe(F5) = N[C@@H](Cc1c(F)c(F)c(F)c(F)c1F)C(=O)O; hArg = N=C(N)NCCCC[C@H](N)C(=O)O; 12Ado = NCCCCCCCCCCCC(=O)O; Nle = CCCC[C@H](N)C(=O)O; Orn = NCCC[C@H](N)C(=O)O; Abu = CC[C@H](N)C(=O)O; PhAc = O=C(Cc1ccccc1)*"}
{"compound": "CCCC[C@H](NC(=O)[C@@H](NC(=O)[C@H](CC(=O)O)NC(=O)[C@H](CCC(N)=O)NC(=O)[C@H](CC(C)C)NC(=O)[C@H](CC(C)C)NC(=O)[C@H](CCCN)NC(=O)[C@H](Cc1c[nH]cn1)NC(=O)[C@H](C)NC(=O)[C@H](CO)NC(=O)[C@H](CC(C)C)NC(=O)[C@H](CCC(N)=O)NC(=O)[C@H](CC)NC(=O)[C@H](CC(C)C)NC(=O)[C@@H](NC(=O)[C@H](CCCN)NC(=O)[C@H](Cc1c[nH]cn1)NC(=O)[C@H](Cc1ccc(OC)cc1)NC(=O)[C@H](CCCCNC(=N)N)NC(=O)[C@H](C)NC(=O)[C@@H](NC(=O)[C@H](Cc1c(F)c(F)c(F)c(F)c1F)NC(=O)[C@@H](NC(=O)[C@H](C)NC(=O)[C@H](CC(=O)O)NC(=O)[C@@H](CCCNC(=N)N)NC(=O)[C@H](Cc1ccc(O)cc1)NC(=O)CCCCCCCCCCCNC(=O)Cc1ccccc1)[C@@H](C)CC)[C@@H](C)O)C(C)C)[C@@H](C)CC)C(=O)N[C@H](CCCNC(=N)N)C(=O)N[C@@H](CCCCNC(=N)N)C(N)=O", "note": "[MIA-602, PhAC-Ada, Tyr D-Arg, Asp, Ala, Ile, 5FPhe, Thr, Ala, Har, Tyr(Me), His, Orn, Val, Leu, Abu, Gin, Leu, Ser, Ala, His, Orn, Leu, Leu, Gin, Asp, Ile, Nle, D-Arg, Har NH2, reference compound] ({PhAc-12Ado}-Y[dR]DAI[Phe(F5)]TA[hArg]Y(Me)H[Orn]VL[Abu]QLSAH[Orn]LLQDI[Nle][dR][hArg]-NH2)", "values": [{"measurement": "In vitro relative inhibitory potency in comparison to MIA-602, HCC-1806", "setting": "HCC1806 cells; Table 3B", "result": 1}, {"measurement": "Relative inhibitory potency, Breast HCC1806", "setting": "HCC1806 cells; relative to MIA602 = 1, Table 3A", "result": 1}, {"measurement": "Infiltrative densities in lungs on micro-CT", "setting": "[1]", "result": "less prominent infiltrative densities"}, {"measurement": "Signaling pathways in gastric cancer cells", "setting": "[2]", "result": "downregulates p21 activated kinase and STAT3 and NFκB; also recorded: inhibits signaling pathways, including PAK1-STAT3/NF-κB"}]}
